# Measured values from BindingDB's records for doi:10.1016/s1074-5521(98)90632-9 (Merck Research Laboratories, 1998).
# pIC50: −log10 of the molar value.
# Molecular target: T1, Beta-lactamase (Bacteroides fragilis, UniProt Q8KZP2)
# T1 sequence (Q8KZP2 whole entry): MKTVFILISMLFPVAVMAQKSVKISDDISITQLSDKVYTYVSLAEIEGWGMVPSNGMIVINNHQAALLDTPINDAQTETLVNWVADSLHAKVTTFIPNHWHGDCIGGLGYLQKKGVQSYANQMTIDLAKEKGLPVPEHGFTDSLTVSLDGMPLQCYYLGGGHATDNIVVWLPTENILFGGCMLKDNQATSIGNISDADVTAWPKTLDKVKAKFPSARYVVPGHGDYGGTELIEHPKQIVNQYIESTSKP
# Assay: Metallo-Beta-Lactamase Assay
# Conditions: pH 7; 37 °C
# Description: Enzyme inhibition assay by biphenyl tetrazoles (BPTS)using metallo-beta-lactamase.
row,pIC50,Compound
1,6.40,"CCCCc1nc2c(c(=O)n1Cc1ccc(-c3ccccc3-c3nnn[nH]3)cc1)SCC2 [L-159,906]"
2,6.52,"C1=Cc2c(c3ccccc3n2Cc2ccc(-c3ccccc3-c3nnn[nH]3)cc2)CC1 [L-161,189]"
3,3.96,"c1ccc(-c2nnn[nH]2)c(-c2ccc(Cn3cnc4ccccc43)cc2)c1 [L-808,509]"
4,3.07,"c1ccc(-c2ccccc2-c2nn[nH]n2)cc1 [L-809,022]"
5,4.38,"C1=Cc2[nH]c3cc(OCc4ccc(-c5ccccc5-c5nnn[nH]5)cc4)ccc3c2CC1 [L-809,339]"
6,5.22,"Oc1ccc2c3c(n(Cc4ccc(-c5ccccc5-c5nnn[nH]5)cc4)c2c1)C=CCC3 [L-809,370]"

# Second part, the compound before the results:
row,Compound,pIC50
1,CCCCc1nc2ccc(O)cc2c(=O)n1Cc1ccc(-c2ccccc2-c2nnn[nH]2)cc1,5.72
2,CCCc1nc(CC)c(C=O)n1Cc1ccc(-c2ccccc2-c2nnn[nH]2)cc1,5.15
3,"Cc1ccc(-c2ccccc2-c2nnn[nH]2)cc1 [L-158,507]",3.80
4,CCCc1nc2ccc(Cl)nc2n1Cc1ccc(-c2ccccc2-c2nnn[nH]2)cc1 [L-158-678],5.46
5,Cc1ccnc2c1nc(C(C)C)n2Cc1ccc(-c2ccccc2-c2nnn[nH]2)cc1 [L-158-817],5.74
6,c1ccc(-c2nnn[nH]2)c(-c2ccc(Cn3cnc4cccnc43)cc2)c1 [L-809-558],4.38
7,Cc1nc2ccccc2n1Cc1ccc(-c2ccccc2-c2nnn[nH]2)cc1 [L-809-559],5.40

# Molecular target: T2, Dipeptidase 1 (Homo sapiens, UniProt P16444)
# T2 sequence (P16444 whole entry): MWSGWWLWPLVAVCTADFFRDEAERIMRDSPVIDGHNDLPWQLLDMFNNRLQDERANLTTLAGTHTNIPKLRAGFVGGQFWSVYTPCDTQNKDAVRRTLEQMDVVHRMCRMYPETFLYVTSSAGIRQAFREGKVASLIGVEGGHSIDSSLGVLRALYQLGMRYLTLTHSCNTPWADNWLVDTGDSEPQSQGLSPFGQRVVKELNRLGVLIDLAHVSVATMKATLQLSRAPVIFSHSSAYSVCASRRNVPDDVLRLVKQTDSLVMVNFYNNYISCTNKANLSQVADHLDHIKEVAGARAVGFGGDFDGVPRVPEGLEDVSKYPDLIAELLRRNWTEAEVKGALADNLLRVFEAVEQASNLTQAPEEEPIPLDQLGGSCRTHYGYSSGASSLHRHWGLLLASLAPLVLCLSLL
# Assay: Dehydropeptidase I Assay
# Conditions: pH 7; 37 °C
# Description: Enzyme inhibition assay by biphenyl tetrazoles (BPTS)using dehydropeptidase 1 (DPH-1).
row,pIC50,Compound
1,< 4.00,"CCCCc1nc2c(c(=O)n1Cc1ccc(-c3ccccc3-c3nnn[nH]3)cc1)SCC2 [L-159,906]"
2,3.92,"C1=Cc2c(c3ccccc3n2Cc2ccc(-c3ccccc3-c3nnn[nH]3)cc2)CC1 [L-161,189]"
3,< 3.30,"c1ccc(-c2nnn[nH]2)c(-c2ccc(Cn3cnc4ccccc43)cc2)c1 [L-808,509]"
4,< 3.00,"c1ccc(-c2ccccc2-c2nn[nH]n2)cc1 [L-809,022]"
5,< 4.00,"C1=Cc2[nH]c3cc(OCc4ccc(-c5ccccc5-c5nnn[nH]5)cc4)ccc3c2CC1 [L-809,339]"
6,< 4.00,"Oc1ccc2c3c(n(Cc4ccc(-c5ccccc5-c5nnn[nH]5)cc4)c2c1)C=CCC3 [L-809,370]"

# Continued, compound first:
row,Compound,pIC50
1,CCCCc1nc2ccc(O)cc2c(=O)n1Cc1ccc(-c2ccccc2-c2nnn[nH]2)cc1,< 4.00
2,CCCc1nc(CC)c(C=O)n1Cc1ccc(-c2ccccc2-c2nnn[nH]2)cc1,3.72
3,"Cc1ccc(-c2ccccc2-c2nnn[nH]2)cc1 [L-158,507]",< 3.00
4,CCCc1nc2ccc(Cl)nc2n1Cc1ccc(-c2ccccc2-c2nnn[nH]2)cc1 [L-158-678],3.62
5,Cc1ccnc2c1nc(C(C)C)n2Cc1ccc(-c2ccccc2-c2nnn[nH]2)cc1 [L-158-817],< 4.00
6,c1ccc(-c2nnn[nH]2)c(-c2ccc(Cn3cnc4cccnc43)cc2)c1 [L-809-558],< 3.60
7,Cc1nc2ccccc2n1Cc1ccc(-c2ccccc2-c2nnn[nH]2)cc1 [L-809-559],< 3.60
